{"source": "ChEMBL document CHEMBL1125850", "about": "“Synthesis of substrate-based inhibitors of HMG CoA reductase” (Bioorg Med Chem Lett, 1991)", "assay_type_in_all_cases": "microsomes", "conditions_in_all_cases": "Microsome", "key": {"[1]": {"target": "T1, 3-hydroxy-3-methylglutaryl-coenzyme A reductase (Rattus norvegicus) (UniProt P51639)", "T1 sequence (whole entry)": "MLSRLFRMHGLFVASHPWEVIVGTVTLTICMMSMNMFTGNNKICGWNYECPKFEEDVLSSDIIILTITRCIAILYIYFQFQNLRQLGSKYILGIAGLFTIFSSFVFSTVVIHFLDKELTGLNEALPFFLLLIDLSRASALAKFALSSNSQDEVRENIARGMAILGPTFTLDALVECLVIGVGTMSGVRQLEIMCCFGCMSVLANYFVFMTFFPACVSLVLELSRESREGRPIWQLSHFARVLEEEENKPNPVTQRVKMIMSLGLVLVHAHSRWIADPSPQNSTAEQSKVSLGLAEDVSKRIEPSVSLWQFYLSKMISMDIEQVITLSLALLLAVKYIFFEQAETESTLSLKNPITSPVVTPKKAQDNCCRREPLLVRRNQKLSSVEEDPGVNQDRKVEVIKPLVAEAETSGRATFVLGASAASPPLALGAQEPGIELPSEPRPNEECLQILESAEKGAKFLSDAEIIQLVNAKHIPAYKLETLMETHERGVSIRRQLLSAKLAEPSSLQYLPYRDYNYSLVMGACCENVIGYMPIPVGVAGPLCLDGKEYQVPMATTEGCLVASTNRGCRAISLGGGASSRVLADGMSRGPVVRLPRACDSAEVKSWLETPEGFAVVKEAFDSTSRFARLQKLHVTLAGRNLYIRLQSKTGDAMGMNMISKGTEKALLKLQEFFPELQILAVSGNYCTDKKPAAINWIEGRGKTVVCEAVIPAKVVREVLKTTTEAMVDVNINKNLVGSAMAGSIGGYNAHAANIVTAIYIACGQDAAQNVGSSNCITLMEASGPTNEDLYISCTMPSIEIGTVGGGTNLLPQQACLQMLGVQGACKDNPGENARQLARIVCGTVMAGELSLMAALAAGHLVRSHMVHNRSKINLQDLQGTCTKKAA", "assay": "Inhibition of enzyme activity in a rat hepatic microsomal HMG-CoA reductase at 100 uM"}, "[2]": {"target": "T1, 3-hydroxy-3-methylglutaryl-coenzyme A reductase (Rattus norvegicus)", "assay": "Inhibition of enzyme activity in a rat hepatic microsomal HMG-CoA reductase at 100 uM; IA means inactive"}, "[3]": {"target": "T1, 3-hydroxy-3-methylglutaryl-coenzyme A reductase (Rattus norvegicus)", "assay": "Inhibition of enzyme activity in a rat hepatic microsomal HMG-CoA reductase at 100 uM IA means inactive"}}, "note": "Calls of active or inactive are those of the source. No cut-off for these calls is given here."}
{"smiles": "CC(C)[C@@H](O)C(=O)NCCC(=O)NCCSCCC(O)CC(=O)O", "note": "(stereo partly drawn)", "values": [{"measurement": "inhibition", "setting": "[1]", "value": 24, "unit": "%"}]}
{"smiles": "CC(C)[C@@H](O)C(=O)NCCC(=O)NCCSCC(O)CC(O)CC(=O)O", "note": "(stereo partly drawn)", "values": [{"measurement": "Activity", "setting": "[2]", "value": "inactive"}]}
{"smiles": "CC(C)[C@@H](O)C(=O)NCCC(=O)NCCSCC(=O)CC(O)CC(=O)O", "note": "(stereo partly drawn)", "values": [{"measurement": "Activity", "setting": "[3]", "value": "inactive"}]}
